This experiment deals with Recombinant human factor D (Homo sapiens (Human), UniProt P00746). The experiment can be described thus: biochemical. The class given is biochemical.
The mark [1] stands for this setting: Factor D inhibition data using Method 1, substrate Z-Lys-thiobenzyl, fluorescence readout, read-out: IC50.
Setting [2] is: IC50, Factor D inhibition data using Method 1, substrate Z-Lys-thiobenzyl, fluorescence readout.

Each structure is given as a SMILES string. Read-outs that look alike come from different tables or passages of the source.

Broadly, the IC50 is the concentration that inhibits the measured activity by half.

Sequence of Recombinant human factor D (P00746 26-253): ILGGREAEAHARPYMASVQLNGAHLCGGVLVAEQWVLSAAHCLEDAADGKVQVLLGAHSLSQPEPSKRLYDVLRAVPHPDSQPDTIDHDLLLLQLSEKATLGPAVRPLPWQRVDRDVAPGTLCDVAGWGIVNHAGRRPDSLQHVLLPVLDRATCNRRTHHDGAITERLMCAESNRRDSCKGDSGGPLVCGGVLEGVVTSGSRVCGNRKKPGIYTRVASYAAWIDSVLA
Protocol: Human Complement Factor D Assay: Method 1
Recombinant human factor D (expressed in E. coli and purified using standard methods) at 10 nM concentration is incubated with test compound at various concentrations for 1 hour at room temperature in 0.1 M Hepes buffer, pH 7.5, containing 1 mM MgCl2, 1 M NaCl and 0.05% CHAPS. […] IC50 values are calculated from percentage of inhibition of complement factor D-activity as a function of test compound concentration.

For `COC(=O)[C@@H]1CCC[C@H](NC(=O)[C@@H]2C[C@H]3C[C@H]3N2C(=O)Cn2nc(C(C)=O)c3cccnc32)C1` [Example 14, (1R,3S)-3-({(1R,3S,5R)-2-[2-(3-Acetyl-pyrazolo[3,4-b]pyridin-1-yl)-acetyl]-2-aza-bicyclo[3.1.0]hexane-3-carbonyl}-amino)-cyclohexanecarboxylic acid methyl ester], the IC50 under setting [1] worked out at 2430 nM.

As for `C[C@@]1(CO)CCC[C@H](NC(=O)[C@@H]2C[C@H]3C[C@H]3N2C(=O)Cn2nc(C(N)=O)c3ccccc32)C1` [Example 128, 1-(2-((1R,3S,5R)-3-(((1S,3R)-3-(hydroxymethyl)-3-methylcyclohexyl)carbamoyl)-2-azabicyclo[3.1.0]hexan-2-yl)-2-oxoethyl)-1H-indazole-3-carboxamide], under setting [1], the IC50 came out at 2210 nM.

As for `CCc1cc2c(C(N)=O)nn(CC(=O)N3[C@@H]4C[C@@H]4C[C@H]3C(=O)N[C@@H]3CCCC(C)(C)C3)c2cn1` [Example 64, 1-{2-[(1R,3S,5R)-3-((R)-3,3-Dimethyl-cyclohexylcarbamoyl)-2-aza-bicyclo[3.1.0]hex-2-yl]-2-oxo-ethyl}-5-ethyl-1H-pyrazolo[3,4-c]pyridine-3-carboxylic acid amide], the IC50 under setting [1] was 24 nM.

For the compound `Cc1cc2c(C(N)=O)nn(CC(=O)N3[C@@H]4C[C@@H]4C[C@H]3C(=O)N[C@@H]3CCCC(C)(C)C3)c2cn1` [Example 63, 1-{2-[(1R,3S,5R)-3-((R)-3,3-Dimethyl-cyclohexylcarbamoyl)-2-aza-bicyclo[3.1.0]hex-2-yl]-2-oxo-ethyl}-5-methyl-1H-pyrazolo[3,4-c] pyridine-3-carboxylic acid amide], the IC50 under setting [1] is 49 nM.

Consider `NC(=O)c1nn(CC(=O)N2[C@@H]3C[C@@H]3C[C@H]2C(=O)NC2CCCC(O)(C(F)(F)F)C2)c2ccccc12` (stereo partly drawn) [Example 31, 1-{2-[(1R,3S,5R)-3-(3-Hydroxy-3-trifluoromethyl-cyclohexylcarbamoyl)-2-aza-bicyclo[3.1.0]hex-2-yl]-2-oxo-ethyl}-1H-indazole-3-carboxylic acid amide], for which the IC50 under setting [1] was determined as 900 nM.

Regarding `NC(=O)c1nn(CC(=O)N2C[C@H](F)C[C@H]2C(=O)NC2CCCC3(CC3)C2)c2ccccc12` (single isomer, unassigned) [Example 92], the IC50 under setting [2] was 2000 nM.

Consider `CC1(C)C[C@H](O)C[C@@H](NC(=O)[C@@H]2C[C@H]3C[C@H]3N2C(=O)Cn2nc(C(N)=O)c3ccccc32)C1` [Example 108, 1-{2-[(1R,3S,5R)-3-((1S,5S)-5-Hydroxy-3,3-dimethyl-cyclohexylcarbamoyl)-2-aza-bicyclo[3.1.0]hex-2-yl]-2-oxo-ethyl}-1H-indazole-3-carboxylic acid amide], for which, under setting [1], the IC50 was determined as 2230 nM.

For the compound `Cc1cc2c(C(N)=O)nn(CC(=O)N3[C@@H]4C[C@@H]4C[C@H]3C(=O)NN3CCCC(C)(C)C3)c2cn1` [Example 29, 1{2-[(1R,3S,5R)-3-(3,3-Dimethyl-pipendin-1-ylcarbamoyl)-2-aza-bicyclo[3.1.0]hex-2-yl]-2-oxo-ethyl}-5-methyl-1H-pyrazolo[3,4-c] pyridine-3-carboxylic acid amide], the IC50 (read-out: IC50) came out at 28 nM.

Take `CC(=O)c1nn(CC(=O)N2[C@@H]3C[C@@H]3C[C@H]2C(=O)NC2CC2(C)C)c2ncccc12` (stereo partly drawn) [Example 2, (1R,3S,5R)-2-[2-(3-Acetyl-pyrazolo[3,4-b]pyridin-1-yl)-acetyl]-2-aza-bicyclo[3.1.0]hexane-3-carboxylic acid (2,2-dimethyl-cyclopropyl)-amide]: under setting [1], the IC50 was found to be 6900 nM.

Regarding `CO[C@H]1CCC[C@@H](NC(=O)[C@@H]2C[C@H]3C[C@H]3N2C(=O)Nc2cn(C(N)=O)c3ccccc23)C1` [Example 21, (1R,3S,5R)-2-Aza-bicyclo[3.1.0]hexane-2,3-dicarboxylic acid 2-[(1-carbamoyl-1H-indol-3-yl)-amide] 3-[((1R,3S)-3-methoxy-cyclohexyl)-amide]], the IC50 under setting [1] was 486 nM.

`COC1(C)CCCC(NC(=O)[C@@H]2C[C@H]3C[C@H]3N2C(=O)Cn2nc(C(N)=O)c3ccccc32)C1` (mixture of isomers) [Example 126, 1-(2-((1R,3S,5R)-3-(((1R,3S) and (1S,3R)-3-methoxy-3-methylcyclohexyl)carbamoyl)-2-azabicyclo[3.1.0]hexan-2-yl)-2-oxoethyl)-1H-indazole-3-carboxamide]: where the note is “read-out: IC50”, the IC50 came to 200 nM.

As to `CO[C@H]1CCC[C@@H](NC(=O)[C@@H]2C[C@H]3C[C@H]3N2C(=O)Cn2nc(C(N)=O)c3ccccc32)C1` [Example 46, 1-{2-[(1R,3S,5R)-3-((1R,3S)-3-Methoxy-cyclohexylcarbamoyl)-2-aza-bicyclo[3.1.0]hex-2-yl]-2-oxo-ethyl}-1H-indazole-3-carboxylic acid amide], the IC50 under setting [1] is 478 nM.

Take `NC(=O)c1nn(CC(=O)N2[C@@H]3C[C@@H]3C[C@H]2C(=O)NC2CCCC3(CC3)C2)c2ccccc12` (single isomer, unassigned) [Example 58]: the 50% inhibitory concentration (IC50) under setting [2] came to 41 nM.

Regarding `CO[C@@H]1C[C@@H](NC(=O)[C@@H]2C[C@H]3C[C@H]3N2C(=O)Cn2nc(C(N)=O)c3ccccc32)CC(C)(C)C1` [Example 105, 1-{2-[(1R,3S,5R)-3-((1S,5S)-5-Methoxy-3,3-dimethyl-cyclohexylcarbamoyl)-2-aza-bicyclo[3.1.0]hex-2-yl]-2-oxo-ethyl}-1H-indazole-3-carboxylic acid amide], the IC50 (read-out: IC50) came to 225 nM.

As to `CC1(C)CCC[C@H](NC(=O)[C@@H]2[C@@H]3C[C@@H]3CN2C(=O)Cn2nc(C(N)=O)c3ccncc32)C1` [Example 87, 1-{2-[(1R,2S,5S)-2-((S)-3,3-Dimethyl-cyclohexylcarbamoyl)-3-aza-bicyclo[3.1.0]hex-3-yl]-2-oxo-ethyl}-1H-pyrazolo[3,4-c]pyridine-3-carboxylic acid amide], the IC50 under setting [1] was 6620 nM.

For `C[C@@H]1CCC[C@H](NC(=O)[C@@H]2C[C@H]3C[C@H]3N2C(=O)Cn2nc(C(N)=O)c3ccccc32)C1` [Example 48, 1-{2-[(1R,3S,5R)-3-((1S,3R)-3-Methyl-cyclohexylcarbamoyl)-2-aza-bicyclo[3.1.0]hex-2-yl]-2-oxo-ethyl}-1H-indazole-3-carboxylic acid amide], the half-maximal inhibitory concentration (IC50) (read-out: IC50) came to 1320 nM.

As to `CC1(C)CCC(NC(=O)[C@@H]2C[C@H]3C[C@H]3N2C(=O)Cn2nc(C(N)=O)c3ccncc32)C1` (single isomer, unassigned) [Example 68], the half-maximal inhibitory concentration (IC50) under setting [2] is 1920 nM.

On to `CC1(C)CCCC(NC(=O)[C@@H]2C[C@@]3(CO)C[C@H]3N2C(=O)Cn2nc(C(N)=O)c3ccccc32)C1` (stereo partly drawn) [Example 110, 1-{2-[(1R,3S,5S)-3-(3,3-Dimethyl-cyclohexylcarbamoyl)-5-hydroxymethyl-2-aza-bicyclo[3.1.0]hex-2-yl]-2-oxo-thyl}-1H-indazole-3-carboxylic acid amide], for which, under setting [1], the IC50 was 48 nM.

With `CC1(C)CCC[C@@H](NC(=O)[C@@H]2C[C@H]3C[C@H]3N2C(=O)Cn2nc(C(N)=O)c3ccncc32)C1` [Example 56, 1-{2-[(1R,3S,5R)-3-((R)-3,3-Dimethyl-cyclohexylcarbamoyl)-2-aza-bicyclo[3.1.0]hex-2-yl]-2-oxo-ethyl}-1H-pyrazolo[3,4-c]pyridine-3-carboxylic acid amide], under setting [1], the IC50 was 37 nM.

For `NC(=O)c1nn(CC(=O)N2[C@@H]3C[C@@H]3C[C@H]2C(=O)N[C@@H]2CCC[C@H](C(F)(F)F)C2)c2cnccc12` [Example 41, 1-{2-Oxo-2-[(1R,3S,5R)-3-((1R,3S)-3-trifluoromethyl-cyclohexylcarbamoyl)-2-aza-bicyclo[3.1.0]hex-2-yl]-ethyl}-1H-pyrazolo[3,4-c]pyridine-3-carboxylic acid amide], where the note is “read-out: IC50”, the IC50 is 114 nM.

Take `CC(=O)c1nn(CC(=O)N2[C@@H]3C[C@@H]3C[C@H]2C(=O)N[C@H]2C[C@H](O)CC(C)(C)C2)c2ccccc12` [Example 124, (1R,3S,5R)-2-(2-(3-acetyl-1H-indazol-1-yl)acetyl)-N-((1R,5R)-5-hydroxy-3,3-dimethylcyclohexyl)-2-azabicyclo[3.1.0]hexane-3-carboxamide]: the IC50 (read-out: IC50) is 10 nM.

Consider `CC[C@H]1CCC[C@@H](NC(=O)[C@@H]2C[C@H]3C[C@H]3N2C(=O)Cn2nc(C(N)=O)c3ccncc32)C1` [Example 73, 1-{2-[(1R,3S,5R)-3-((1R,3S)-3-ethyl-cyclohexylcarbamoyl)-2-aza-bicyclo[3.1.0]hex-2-yl]-2-oxo-ethyl}-1H-pyrazolo[3,4-c]pyridine-3-carboxylic acid amide], for which the IC50 under setting [1] was 29 nM.

As for `Cc1nccc2c(C(N)=O)nn(CC(=O)N3[C@@H]4C[C@@H]4C[C@H]3C(=O)N[C@@H]3CCCC(C)(C)C3)c12` [Example 65, 1-{2-[(1R,3S,5R)-3-((R)-3,3-Dimethyl-cyclohexylcarbamoyl)-2-aza-bicyclo[3.1.0]hex-2-yl]-2-oxo-ethyl}-7-methyl-1H-pyrazolo[3,4-c]pyridine-3-carboxylic acid amide], the IC50 (read-out: IC50) stood at 38 nM.

On to `C[C@H]1CCC[C@@H](NC(=O)[C@@H]2C[C@H]3C[C@H]3N2C(=O)Cn2nc(C(N)=O)c3ccncc32)C1` [Example 51, 1-{2-[(1R,3S,5R)-3-((1R,3S)-3-Methyl-cyclohexylcarbamoyl)-2-aza-bicyclo[3.1.0]hex-2-yl]-2-oxo-ethyl}-1H-pyrazolo[3,4-c]pyridine-3-carboxylic acid amide], for which, under setting [1], the IC50 worked out at 226 nM.

Consider `CC1(C)CCC[C@@H](NC(=O)[C@@H]2C[C@@H](F)CN2C(=O)Cn2nc(C(N)=O)c3ccccc32)C1` [Example 82, 1-{2-[(2S,4R)-2-((R)-3,3-Dimethyl-cyclohexylcarbamoyl)-4-fluoro-pyrrolidin-1-yl]-2-oxo-ethyl}-1H-indazole-3-carboxylic acid amide], for which the IC50 under setting [1] worked out at 38 nM.

In the case of `CC1(C)CCC[C@H](NC(=O)[C@@H]2C[C@@H](F)CN2C(=O)Cn2nc(C(N)=O)c3ccncc32)C1` [Example 70, 1-{2-[(2S,4R)-2-((S)-3,3-Dimethyl-cyclohexylcarbamoyl)-4-fluoro-pyrrolidin-1-yl]-2-oxo-ethyl}-1H-pyrazolo[3,4-c]pyridine-3-carboxylic acid amide], under “read-out: IC50”, the IC50 is 2090 nM.
